The term IC50 denotes the concentration that inhibits the measured activity by half. A low value points to greater potency in that assay.

The test system of the first assay is Trypanosoma cruzi. Kind of assay: Trypanocidal activity against Trypanosoma cruzi Y epimastigotes after 72 hrs by MTT assay. In kind it is functional, organism-based.
Conditions: not given
For orientation: Formazan colour is commonly taken as a measure of viable cells.
For the compound `CC(C)=CCCC1(C)C=Cc2cc(C(=O)O)cc(CC=C(C)C)c2O1` (racemic; form 1) [GAUDICHAUDIANIC ACID], half-maximal inhibition (IC50) required 111 µM.

In turn, `CC(C)=CCCC1(C)C=Cc2cc(C(=O)O)cc(CC=C(C)C)c2O1` (racemic; form 2) [GAUDICHAUDIANIC ACID] showed an IC50 of 197 µM. This IC50 is about 1.8-fold higher than that of the compound before.

Turning to `CC(C)=CCCC1(C)C=Cc2cc(C(=O)O)cc(CC=C(C)C)c2O1` (stereo in doubt; 1) [GAUDICHAUDIANIC ACID], the midpoint of inhibition, the IC50, lay at 55.8 µM.

Still in this assay, the particulars now being: Trypanosoma cruzi, Y, 72 h.
On to `CC(C)=CCC[C@]1(C)C=Cc2cc(C(=O)O)cc(CC=C(C)C)c2O1`, for which the IC50 came to 224 µM.

With `CC(C)=CCC[C@@]1(C)C=Cc2cc(C(=O)O)cc(CC=C(C)C)c2O1`, the IC50 was determined as 176 µM.

Regarding `O=C(Cn1ccnc1[N+](=O)[O-])NCc1ccccc1` [BENZNIDAZOLE], half-maximal inhibition (IC50) was put at 37.3 µM.

These data come from ChEMBL document CHEMBL1781904, “Absolute configuration and selective trypanocidal activity of gaudichaudianic acid enantiomers” (J Nat Prod, 2011).
